Reference: PubChem BioAssay (NCI)
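A five-concentration, 48-hour dose response in 96-well plates underlies each endpoint, interpolated linearly between surrounding concentrations. GI50 = concentration required for 50% inhibition of growth. TGI is the concentration that stops growth completely.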

Legend:
Test in all cases: NCI anticancer screen, dose series, 48 h
HCC-2998 colon = tested on: HCC-2998 colon
RXF 393 renal = tested on: RXF 393 renal
SR leukemia = tested on: SR leukemia
HS 578T breast = tested on: HS 578T breast
RPMI-8226 leukemia = tested on: RPMI-8226 leukemia
SK-MEL-2 melanoma = tested on: SK-MEL-2 melanoma
SNB-19 CNS = tested on: SNB-19 CNS
SF-539 CNS = tested on: SF-539 CNS
KM12 colon = tested on: KM12 colon
NCI-H460 lung = tested on: NCI-H460 lung
OVCAR-8 ovarian = tested on: OVCAR-8 ovarian
HCT-15 colon = tested on: HCT-15 colon
HOP-92 NSCLC = tested on: HOP-92 NSCLC
MDA-MB-231 breast = tested on: MDA-MB-231 breast
NCI-H522 lung = tested on: NCI-H522 lung
OVCAR-4 ovarian = tested on: OVCAR-4 ovarian
NCI/ADR-RES ovarian = tested on: NCI/ADR-RES ovarian
SK-MEL-28 melanoma = tested on: SK-MEL-28 melanoma
HOP-62 NSCLC = tested on: HOP-62 NSCLC
MDA-MB-435 = tested on: MDA-MB-435
ACHN renal = tested on: ACHN renal
SF-295 CNS = tested on: SF-295 CNS
SF-268 CNS = tested on: SF-268 CNS
A498 renal = tested on: A498 renal
UACC-62 melanoma = tested on: UACC-62 melanoma
K-562 leukemia = tested on: K-562 leukemia
HL-60(TB) leukemia = tested on: HL-60(TB) leukemia
EKVX NSCLC = tested on: EKVX NSCLC
COLO 205 colon = tested on: COLO 205 colon
786-0 renal = tested on: 786-0 renal
NCI-H23 lung = tested on: NCI-H23 lung
LOX IMVI melanoma = tested on: LOX IMVI melanoma
UO-31 renal = tested on: UO-31 renal
MOLT-4 leukemia = tested on: MOLT-4 leukemia
SW-620 colon = tested on: SW-620 colon
UACC-257 melanoma = tested on: UACC-257 melanoma
OVCAR-5 ovarian = tested on: OVCAR-5 ovarian
U251 CNS = tested on: U251 CNS
BT-549 breast = tested on: BT-549 breast
T-47D breast = tested on: T-47D breast
NCI-H226 lung = tested on: NCI-H226 lung
SK-MEL-5 melanoma = tested on: SK-MEL-5 melanoma
CAKI-1 renal = tested on: CAKI-1 renal
SN12C renal = tested on: SN12C renal
MALME-3M melanoma = tested on: MALME-3M melanoma
SK-OV-3 ovarian = tested on: SK-OV-3 ovarian
HCT-116 colon = tested on: HCT-116 colon
OVCAR-3 ovarian = tested on: OVCAR-3 ovarian
HT29 colon = tested on: HT29 colon
PC-3 prostate = tested on: PC-3 prostate
SNB-75 CNS = tested on: SNB-75 CNS
DU-145 prostate = tested on: DU-145 prostate
CCRF-CEM leukemia = tested on: CCRF-CEM leukemia
MCF7 breast = tested on: MCF7 breast
IGROV1 ovarian = tested on: IGROV1 ovarian
M14 melanoma = tested on: M14 melanoma
TK-10 renal = tested on: TK-10 renal
A549 NSCLC = tested on: A549 NSCLC

In the case of O=C1/C=C/[C@@H](O)[C@@H]2C[C@@H](O)C[C@H]2/C=C/CCC[C@H](CCOCc2ccccc2)O1, the GI50 (HCC-2998 colon) is reported as 110 nM, the GI50 (RXF 393 renal) is reported as less than 13.9 nM and the TGI (RXF 393 renal) is reported as 43.6 nM. The GI50 (SR leukemia) was 142 nM, the GI50 (HS 578T breast) was less than 22.6 nM and the TGI (HS 578T breast) was greater than 100000 nM. The GI50 (RPMI-8226 leukemia) was 297 nM, the TGI (RPMI-8226 leukemia) was 20600 nM and the GI50 (SK-MEL-2 melanoma) was 172 nM. The TGI (SK-MEL-2 melanoma) was 649 nM, the GI50 (SNB-19 CNS) was 138 nM and the TGI (SNB-19 CNS) was greater than 100000 nM. It also gave a GI50 (SF-539 CNS) of 112 nM, a TGI (SF-539 CNS) greater than 100000 nM and a TGI (KM12 colon) of 31 nM. The GI50 (NCI-H460 lung) was 380 nM, the TGI (NCI-H460 lung) was greater than 100000 nM and the GI50 (OVCAR-8 ovarian) was 52.3 nM. The GI50 (HCT-15 colon) was 290 nM, the TGI (HCT-15 colon) was 12900 nM and the GI50 (HOP-92 NSCLC) was 234 nM. It also gave a TGI (HOP-92 NSCLC) of 909 nM, a GI50 (MDA-MB-231 breast) of 102 nM and a TGI (MDA-MB-231 breast) of 267 nM. The GI50 (NCI-H522 lung) was 234 nM, the TGI (NCI-H522 lung) was 577 nM and the GI50 (OVCAR-4 ovarian) was 64.3 nM. The TGI (OVCAR-4 ovarian) was greater than 41200 nM, the GI50 (NCI/ADR-RES ovarian) was 46.9 nM and the TGI (NCI/ADR-RES ovarian) was 5270 nM. It also gave a GI50 (SK-MEL-28 melanoma) of less than 17 nM, a TGI (SK-MEL-28 melanoma) of 84.9 nM and a GI50 (HOP-62 NSCLC) of 73.8 nM. The TGI (HOP-62 NSCLC) was greater than 100000 nM, the GI50 (MDA-MB-435) was 53.9 nM and the TGI (MDA-MB-435) was greater than 100000 nM. It also gave a GI50 (ACHN renal) of 317 nM, a TGI (ACHN renal) greater than 100000 nM and a GI50 (SF-295 CNS) of 51 nM. It also gave a TGI (SF-295 CNS) greater than 100000 nM, a GI50 (SF-268 CNS) of 37.6 nM and a TGI (SF-268 CNS) greater than 100000 nM. It also gave a GI50 (A498 renal) of 17.8 nM, a TGI (A498 renal) of 123 nM and a GI50 (UACC-62 melanoma) of 37.2 nM. It also gave a TGI (UACC-62 melanoma) of 12600 nM, a GI50 (K-562 leukemia) of 327 nM and a TGI (K-562 leukemia) greater than 100000 nM. The GI50 (HL-60(TB) leukemia) was 282 nM, the TGI (HL-60(TB) leukemia) was 3310 nM and the GI50 (EKVX NSCLC) was 141 nM. The TGI (EKVX NSCLC) was greater than 100000 nM, the GI50 (COLO 205 colon) was 29.2 nM and the TGI (COLO 205 colon) was 80.9 nM. For the same compound, the GI50 (786-0 renal) was 22.3 nM, the TGI (786-0 renal) was 53.7 nM and the GI50 (NCI-H23 lung) was 105 nM. It also gave a TGI (NCI-H23 lung) of 714 nM, a GI50 (LOX IMVI melanoma) of 35.2 nM and a TGI (LOX IMVI melanoma) of 168 nM. It also gave a GI50 (UO-31 renal) of 70.1 nM, a TGI (UO-31 renal) of 26600 nM and a GI50 (MOLT-4 leukemia) of 305 nM. The TGI (MOLT-4 leukemia) was greater than 43700 nM, the GI50 (SW-620 colon) was 99.4 nM and the TGI (SW-620 colon) was 822 nM. The GI50 (UACC-257 melanoma) was 16.1 nM, the TGI (UACC-257 melanoma) was 2320 nM and the GI50 (OVCAR-5 ovarian) was 246 nM. The TGI (OVCAR-5 ovarian) was greater than 100000 nM, the GI50 (U251 CNS) was 97.8 nM and the TGI (U251 CNS) was greater than 100000 nM. It also gave a GI50 (BT-549 breast) of 117 nM, a TGI (BT-549 breast) greater than 21900 nM and a GI50 (T-47D breast) of 192 nM. For the same compound, the TGI (T-47D breast) was 556 nM, the GI50 (NCI-H226 lung) was 18.8 nM and the TGI (NCI-H226 lung) was 251 nM. The GI50 (SK-MEL-5 melanoma) was less than 13.4 nM, the TGI (SK-MEL-5 melanoma) was 22.7 nM and the GI50 (CAKI-1 renal) was 331 nM. For the same compound, the TGI (CAKI-1 renal) was greater than 100000 nM, the GI50 (SN12C renal) was 272 nM and the TGI (SN12C renal) was greater than 100000 nM. The GI50 (MALME-3M melanoma) was 36.5 nM, the TGI (MALME-3M melanoma) was 428 nM and the GI50 (SK-OV-3 ovarian) was 48.1 nM. The TGI (SK-OV-3 ovarian) was greater than 100000 nM, the GI50 (HCT-116 colon) was 162 nM and the TGI (HCT-116 colon) was 379 nM. For the same compound, the GI50 (OVCAR-3 ovarian) was 39 nM, the TGI (OVCAR-3 ovarian) was 187 nM and the GI50 (HT29 colon) was 27.4 nM. For the same compound, the TGI (HT29 colon) was 212 nM, the GI50 (PC-3 prostate) was 164 nM and the TGI (PC-3 prostate) was greater than 100000 nM. For the same compound, the GI50 (SNB-75 CNS) was less than 27.7 nM, the TGI (SNB-75 CNS) was greater than 95400 nM and the GI50 (DU-145 prostate) was 412 nM. For the same compound, the TGI (DU-145 prostate) was greater than 100000 nM, the GI50 (CCRF-CEM leukemia) was 301 nM and the TGI (CCRF-CEM leukemia) was greater than 100000 nM. The GI50 (MCF7 breast) was 39.9 nM, the TGI (MCF7 breast) was 177 nM and the GI50 (IGROV1 ovarian) was 335 nM. For the same compound, the TGI (IGROV1 ovarian) was greater than 26300 nM, the GI50 (M14 melanoma) was 40.3 nM and the TGI (M14 melanoma) was 13200 nM. For the same compound, the GI50 (TK-10 renal) was 186 nM, the TGI (TK-10 renal) was 658 nM and the GI50 (A549 NSCLC) was 66 nM. It also gave a TGI (A549 NSCLC) greater than 100000 nM.
